Where two headings read alike, the source gives them in different places.
Tests used:
P388 cells = assay: Chemotherapeutic function: life elongation ratio (ILS %) of mice intra-abdominally transplanted with P388 cells; conditions: for toxicity compared with 5-FU in P388-bearing mice: 50 mg/kg/day (Example 1 compound), 70 mg/kg/day (Examples 2 and 3 compounds); for chemotherapeutic function compared with 5-FU: P388 mice, Tables 1 and 2; for Incremental Life Support ILS (%) / ILS (%): intra-abdominal, once daily; for Incremental Life Support ILS (%): five consecutive days
Excerpt: To CDFl mice (males five weeks old), 1×10^6 P388 cells/mouse were intra-abdominally transplanted.
By following the procedure described above, each suspension of 0.5% of 1-(5,8,11,14,17-eicosapentaenoyloxy-meyhyl)-5-fluorouracil of Example 2 and 0.5% of 1-(4,7,10,13,16,19-docosahexenoyloxymethyl)-5-fluorouracil of Example 3 in carboxymethyl celloulose was intra-abdominally administered once daily to other mice of the same description to test for life elongation ratio.

in vivo = conditions: mouse, ip
Excerpt: To ICR mice (male, seven weeks old), 1-(9,12,15-octadecatrienoyloxymethyl)-5-fluorouracil, 1-(5,8,11,14,17-eicosapentaenoyloxymethyl)-5-fluorouracil, and 1-(4,7,10,13,16,19-docosahexenoyloxymethyl)-5-fluorouracil were intra-abdominally administered to test for acute toxicity.

[1] = test system: platelet aggregation induced by the arachidonic acid; assay: Platelet aggregation inhibition in rabbit PRP, induced by arachidonic acid; type: cell-based; conditions: Oryctolagus cuniculus
Excerpt: (§1) With a syringe containing an aqueous 3.8% sodium citrate solution (one volume), blood (nine volumes) was collected from a rabbit through the carotid artery. For this blood, blood plasma abounding with blood platelets (PRP: 500,000/μ1) was obtained by centrifugal separation. The compound of the present invention was used on the PRP, with arachidonic acid or collagen as a coagulation inducer, to test for […].
(§2) With a syringe containing an aqueous 3.8% sodium citrate solution (one volume), blood (nine volumes) was collected from a rabbit through the carotid artery. From this blood, blood plasma abounding with blood platelets (PRP: 400,000/μ) was obtained by centrifugal separation. The compound of the present invention was used on the PRP, with arachidonic acid or collagen as an aggregation inducer, to test for platelet aggregation inhibiting function.

[2] = test system: platelet aggregation induced by collagen; assay: Platelet aggregation inhibition in rabbit PRP, induced by collagen; type: cell-based; conditions: Oryctolagus cuniculus, collagen 25 μg/ml
Excerpt: as §1, §2

[3] = arachidonic acid 80 μM, rabbit PRP 400,000/μ, read-out: 50% depression concentration (IC50) on platelet aggregation

## CC/C=C\C/C=C\C/C=C\CCCCCCCC(=O)OCn1cc(F)c(=O)[nH]c1=O [1-(9,12,15-octadecatrienoyloxymethyl)-5-fluorouracil]
P388 cells
  toxicity compared with 5-FU in P388-bearing mice: less toxic than 5-FU
  chemotherapeutic function compared with 5-FU: equal to or better than the function of 5-FU
P388 cells; Table 1, 5 mg/kg/day
  Incremental Life Support ILS (%): 23%
P388 cells; Table 1, 10 mg/kg/day
  Incremental Life Support ILS (%): 52%
P388 cells; Table 1, 20 mg/kg/day
  Incremental Life Support ILS (%): 71%
P388 cells; Table 1, 30 mg/kg/day
  Incremental Life Support ILS (%): 64%
P388 cells; Table 1, 50 mg/kg/day
  Incremental Life Support ILS (%): 47%
P388 cells; Table 1, 100 mg/kg/day
  Incremental Life Support ILS (%): 7%
In vivo
  LD50: > 500 mg/kg
[1]; arachidonic acid 70 μM, rabbit PRP 500,000/μl, read-out: 50% inhibition concentration (IC50) on platelet aggregation
  IC50: 640 µM
[2]; rabbit PRP 500,000/μl
  IC50: 34 µM

## CCC=CCC=CCC=CCC=CCC=CCCCC(=O)OCn1cc(F)c(=O)[nH]c1=O [1-(5,8,11,14,17-eicosapentaenoyloxymethyl)-5-flourouracil]
P388 cells
  toxicity compared with 5-FU in P388-bearing mice: less toxic than 5-FU
  chemotherapeutic function compared with 5-FU: equal to or better than the function of 5-FU
P388 cells; Table 2, 3 mg/kg/day
  ILS (%): 18%
P388 cells; Table 2, 10 mg/kg/day
  ILS (%): 27%
P388 cells; Table 2, 30 mg/kg/day
  ILS (%): 40%
P388 cells; Table 2, 70 mg/kg/day
  ILS (%): 36%
P388 cells; Table 2, 100 mg/kg/day
  ILS (%): 19%
In vivo
  LD50: > 500 mg/kg
[1]; [3]
  IC50: 120 µM
[2]; rabbit PRP 400,000/μ
  IC50: 710 µM

## O=c1[nH]cc(F)c(=O)[nH]1 [Example 5-FU, 5-fluorouracil]
P388 cells; 30 mg/kg/day
  days of survival compared with control group: smaller numbers of days of survival on the mice treatd than the mice of the control group
P388 cells; Table 1, 5 mg/kg/day
  Incremental Life Support ILS (%): 35%
P388 cells; Table 1, 10 mg/kg/day
  Incremental Life Support ILS (%): 47%
P388 cells; Table 1, 20 mg/kg/day
  Incremental Life Support ILS (%): 62%
P388 cells; Table 1, 30 mg/kg/day
  Incremental Life Support ILS (%): -17%
P388 cells; Table 2, 3 mg/kg/day
  ILS (%): 20%
P388 cells; Table 2, 10 mg/kg/day
  ILS (%): 38%
P388 cells; Table 2, 30 mg/kg/day
  ILS (%): -8%
In vivo; in vivo
  LD50: 235 mg/kg
[1]; arachidonic acid 70 μM, rabbit PRP 500,000/μl, at 1×10^-3 M
  inhibition at 1000 µM: 4%
[1]; [3]
  IC50: > 1000 µM
[2]; rabbit PRP 400,000/μ
  IC50: ≥ 1000 µM
[2]; rabbit PRP 500,000/μl
  IC50: 530 µM

## CCC=CCC=CCC=CCC=CCC=CCC=CCCC(=O)OCn1cc(F)c(=O)[nH]c1=O [1-(4,7,10,13,16,19-docosahexenoyloxymethyl)-5-fluorouracil]
P388 cells
  toxicity compared with 5-FU in P388-bearing mice: less toxic than 5-FU
  chemotherapeutic function compared with 5-FU: equal to or better than the function of 5-FU
P388 cells; Table 2, 3 mg/kg/day
  ILS (%): 17%
P388 cells; Table 2, 10 mg/kg/day
  ILS (%): 34%
P388 cells; Table 2, 30 mg/kg/day
  ILS (%): 47%
P388 cells; Table 2, 70 mg/kg/day
  ILS (%): 30%
P388 cells; Table 2, 100 mg/kg/day
  ILS (%): 22%
In vivo
  LD50: > 500 mg/kg
[1]; [3]
  IC50: 54 µM
[2]; rabbit PRP 400,000/μ
  IC50: 90 µM

Source: patent US4704393A, “1-substituted 5-fluorouracil useful for inhibiting the aggregation of platelets” (Terumo Kabushiki Kaisha, priority 1983, dated 1987)
